From patent US20220362262A1, “METHODS AND COMPOSITIONS FOR TISSUE REGENERATION” (Institute of Zoology, Chinese Academy of Sciences, priority 2019, published 2022)
“Also recorded” adds a separate entry of the source. Where two headings read alike, the source gives them in different places.

Key:
human myocytes = assay: Seahorse O2 consumption rates in differentiating myocytes; format: cell-based; conditions: etomoxir at early 0-12 h and 12-24 h time-windows only
Method: HSKM progenitors were seeded onto Seahorse XF96 Cell Culture Microplate (Agilent), pre-coated with gelatin (0.1%, Merck-Millipore), in growth media at 10,000 cells per well. […] Before performing the Seahorse XF cell Mito Stress Test assay, cell culture media were replaced with assay media (Seahorse XF DMEM Medium, pH 7.4, 2 mM pyruvate, 2 mM glutamine) (Agilent) and incubated in a CO2-free incubator at 37° C. for 1 hour to equilibrate temperature and pH for each well. During the assay, Oligomycin (2 uM, Agilent), FCCP (0.5 uM, Agilent), and a mixture of Antimycin A and Rotenone (0.5 uM, Agilent), were injected sequentially and measurements were taken according to manufacturer's instructions. The data was analyzed using WAVE software.

[1] = system: primary human myoblasts / myocytes; assay: Etomoxir (CPT1 inhibitor) at different time-windows of myoblast differentiation: cell numbers, Western blot; format: cell-based
[2] = system: GFP+ human myocytes engrafted into cryoinjured TA muscle; conditions: myoblasts pre-treated 0-24 h, injected 24 h after cryoinjury
Excerpt: (§1) Some tissues were flash frozen for cryosectioning.

[3] = system: cryoinjured TA muscle of aged and sarcopenic 2-year-old mice
Method: Liquid chromatography-tandem mass spectrometry (LC-MS/MS) metabolomics and lipidomics analyses were performed according to previously published protocols (Chong et al., 2012).
Eight week old NOD scid gamma (NSG) or C57BL/6 mice were anaesthetized with a mixture of ketamine and xylazine (120 mg/kg and 8 mg/kg respectively) via intraperitoneal injection. After successful anesthetization, the skin over the tibialis anterior (TA) or gastrocnemius or quadriceps muscle was disinfected by wiping with 70% ethanol and a 3 mm incision was made over the TA muscle. A dry-ice-chilled 4-mm metal probe was directly applied onto the exposed skeletal muscle for three cycles of five seconds to induce cryo-injury. Thereafter, the incision was immediately sutured using a surgical suture stapler. Upon recovery under heat lamps for a period of 2 hours, the mice were randomly allocated to each treatment groups. […] Samples were serially sectioned until depleted and haemotoxylin and eosin (H&E) staining was performed on every 12th 5 um-thick tissue section. After microscopy imaging, the area of the cryo-injured myofibers was quantified using ImageJ.
Tibialis anterior (TA) tissue samples embedded in paraffin were sectioned using a microtome and transferred onto Leica Microsystems Plus Slides. Some tissues were flash frozen for cryosectioning. Paraffin-embedded sections were deparaffinized in xylene (Merck) for 2 washes (10 mins) and then transferred sequentially into 100% EtOH (Merck), 100% EtOH, 95% EtOH and 70% EtOH (2 mins) at room temperature. The sections were then rehydrated in deionized water (3 mins). Antigen retrieval was carried out using the 2100 Retriever in sodium citrate buffer (Merck, pH 6.2, 30 mins). Slides were then cooled in cold PBS (15 mins) and blocked in blocking buffer at room temperature (30 mins). Primary antibody staining was conducted in blocking buffer at 4° C. overnight with the following antibodies, GFP (1:500, sc-9996, Santa Cruz), Pax7 (5 ug/ml, 042349, DSHB), MyoD (5 ug/ml, sc-377460, Santa Cruz), Ki67 (1:100, 14-5698-82, Thermo Fisher), embryonic MHC (Myh3; 1:100, sc-53091, Santa Cruz), PDGFRa (5 ug/mL, AF1062, R&D), F4/80 (1:100, ab6640, Abcam), PPARG (1:1000, 2443S, CST), and myosin heavy chain eFluor 660 (1:20, 50-6503-82, eBioscience). After the slides were washed thrice in PBS (10 mins) and counterstained with DAPI, secondary antibody staining for GFP was conducted in blocking buffer at room temperature (1 hr) with goat anti-mouse IgG secondary antibody, Alexa Fluor 488 (1:500, A11001, Thermo Fisher).

[4] = system: pure primary human myoblasts; assay: Pure primary human myoblasts treated with PGI2-related drugs (Western blot, qRT-PCR); format: cell-based; conditions: pure primary human myoblasts, relative to DMSO
[5] = system: primary human myoblasts / myocytes
Method: Primary human skeletal muscle (HSKM) progenitors (Gibco) were cultured on gelatin solution (0.1%, Merck-Millipore)-coated plate and incubated in a humidified atmosphere (5% CO2 and 37° C.) with growth medium composed of DMEM/F-12 (Gibco) supplemented with fetal bovine serum (FBS) (20%, GE Healthcare), L-glutamine (1%, Gibco) and penicillin-streptomycin (1%, Gibco). Confluent HSKM progenitors were induced to differentiate by replacing growth media with differentiation medium, comprising of DMEM/F-12, KnockOut Serum Replacement (2%, Gibco), L-glutamine (1%, Gibco) and penicillin-streptomycin (1%, Gibco).
RNA was extracted using TRIzol (Thermo Fisher) and reverse transcribed to cDNA with Superscript III (Thermo Fisher) according to manufacturer's instructions. The synthesized cDNA was diluted 5× in H2O before performing qPCR with KAPA SYBR FAST (Merck) on ABI Prism 7900HT (Applied Biosystems) real-time PCR system according to manufacturers' instructions.
Cells were washed with PBS (Thermo Fisher) and fixed with paraformaldehyde (PFA) (4%, Electron Microscopy Sciences) at room temperature for 10 mins. Cells were stained with primary antibody myosin heavy chain eFluor 660 (1:20, 50-6503-82, Thermo Fisher) at 4 C overnight. DAPI (Merck) was used as a nuclear counterstain according to manufacturer's recommendations. Stained cells were imaged with a Zeiss fluorescence microscope.

cryoinjured TA muscle = assay: Muscle regeneration after cryoinjury: regenerative index, myogenic proteins, myofiber diameter, grip strength after bolus injection; format: in vivo, mice
Excerpt: as §1

[6] = system: fibrosis in TA muscle, liver, skin and heart of 2-year old mice; assay: Aging-induced fibrosis and fibrotic precursors in 2-year old mice after daily injection; format: in vivo; conditions: for relative changes in the % fibrotic area (Masson trichrome staining) / relative changes in the percentage fraction of fibrotic precursors (PGDFRA-positive and Ki67-positive): 7 days post-injection, 2-year old mice
Excerpt: as §1

[7] = system: cryoinjured tibialis anterior (TA) muscle
Method: Eight week old NOD scid gamma (NSG) or C57BL/6 mice were anaesthetized with a mixture of ketamine and xylazine (120 mg/kg and 8 mg/kg respectively) via intraperitoneal injection. After successful anesthetization, the skin over the tibialis anterior (TA) or gastrocnemius or quadriceps muscle was disinfected by wiping with 70% ethanol and a 3 mm incision was made over the TA muscle. A dry-ice-chilled 4-mm metal probe was directly applied onto the exposed skeletal muscle for three cycles of five seconds to induce cryo-injury. Thereafter, the incision was immediately sutured using a surgical suture stapler. Upon recovery under heat lamps for a period of 2 hours, the mice were randomly allocated to each treatment groups. […] Samples were serially sectioned until depleted and haemotoxylin and eosin (H&E) staining was performed on every 12th 5 um-thick tissue section. After microscopy imaging, the area of the cryo-injured myofibers was quantified using ImageJ. For western blot samples, TA muscles were snap-frozen in liquid nitrogen and homogenized in RIPA buffer (Thermo Fisher) supplemented with protease inhibitor cocktails I and II (Merck) and phosphatase inhibitor cocktail set III (Merck) using TissueLyser II (Qiagen).

PPARA = conditions: agonist of PPARA; cited from earlier work
PPARG = conditions: agonist of PPARG; cited from earlier work
[8] = system: muscle stem cells and myoblasts in gastrocnemius, quadriceps and TA muscle; assay: Stem cell and myoblast activation in skeletal muscles without injury, immunofluorescence 2 days after single bolus; format: in vivo, mice; conditions: gastrocnemius muscle, 2 days after intraperitoneal single bolus, with or without fenofibrate or WY-14643
Excerpt: as §1

[9] = 2-year old mice, injected at 0 h after injury, 27 days post-injury

CCOC(=O)[C@@]1(CCCCCCOc2ccc(Cl)cc2)CO1 [etomoxir]
O2 consumption rates (human myocytes): decrease O2 consumption rates
MHC and MYOG protein phenotype (Western blot) ([1]; 0-24 h mitochondrial FAO inhibition): MHC^low; MYOG^low
MHC and MYOG protein phenotype (Western blot) ([1]; 24 h-48 h mitochondrial FAO inhibition): MHC^low; MYOG^high
MHC and MYOG protein phenotype (Western blot) ([1]; 48 h-72 h mitochondrial FAO inhibition): MHC^high; MYOG^low
MHC and MYOG protein phenotype (Western blot) ([1]; 72 h-96 h mitochondrial FAO inhibition): MHC^high; MYOG^high
myocyte survival (relative cell numbers) ([1]; treatment at 0-24 h and 24-48 h of myoblast differentiation): severely compromised myocyte survival

CN(CCOc1ccc(CC2SC(=O)NC2=O)cc1)c1ccccn1 (centres unmarked) [rosiglitazone]
MHC protein expression among the engrafting human myocytes [2]: significantly enhanced
regenerative index (fraction of nuclei in embryonic MHC-positive myofibers) ([3]; 2-year old mice, injected at 0 h after injury, 6 days post-injury): can restore aged muscle regeneration; also recorded: significantly improved
fibrotic area in the TA muscle (Masson trichrome) [3, 9]: can reverse the aged muscle fibrosis; also recorded: significantly reduced fibrosis
grip strength [3, 9]: can partially restore grip strength
regenerative index (fraction of nuclei in embryonic MHC-positive myofibers) ([3]; 2-year old mice, injected at 24 h and 48 h time-points): did not show as strong an improvement
body weight or aging-induced obesity ([3]; 2-year-old mice, 27 days after single intramuscular bolus): no significant changes; also recorded: insufficient to affect total body weight and obesity
FAO intermediates (acyl-carnitines) / FAO flux in TA muscle, LC-MS/MS ([3]; 2-year-old mice, bolus at 0 h post-injury, day 6): led to an induction; also recorded: transiently increase FAO flux
H3K9ac and MyoD protein (Western blot) [4]: followed the same pattern of regulation as PPARG
PPARG protein levels (Western blot) [4]: stabilize and/or upregulate
myogenesis (MHC protein and α-actinin immunostaining) ([5]; 0-24 h and 24-48 h time-windows, low density): significantly enhanced myogenesis
myotube/myofiber maturity and hypertrophy (immunofluorescence) ([5]; 0-24 h time-window, high density): more mature and hypertrophic human myotubes; also recorded: significantly more mature and hypertrophic; also recorded: induces myofibers with wider diameter and higher expression of MHC and α-actinin
mRNA levels of myogenin (MYOG), adult type I myosin heavy chain (MYH7) and perinatal myosin heavy chain (MYH8) ([5]; 0-24 h time-window, low density, at the end of 96 h): uniquely upregulated
myocyte/myotube size and MHC, α-actinin expression (immunofluorescence) ([5]; different time-windows, low density conditions): induces larger myocytes and myotubes with higher expression levels of MHC and α-actinin
mRNA levels of MYOG, MYH7 and MYH8 ([5]; other time-windows of treatment, low density, at the end of 96 h): no significant effects
myogenesis (MHC protein and α-actinin immunostaining) ([5]; other time-windows, low density): suppressed myogenesis
grip strength (cryoinjured TA muscle; 14 days post-injury, 6-week old mice, prostaglandin at 0 h, rosiglitazone at 24 h post-injury): partially restore grip strength
hypertrophic growth (myofiber cross-sectional Feret diameters) (cryoinjured TA muscle; TA muscle 6.5 days post-injury, prostaglandin at day 0, rosiglitazone at day 1): increase hypertrophic growth
regenerative index (fraction of nuclei in embryonic MHC-positive myofibers) (cryoinjured TA muscle; TA muscle 6.5 days post-injury, single bolus, combinations: prostaglandin at day 0, rosiglitazone at day 1, relative to DMSO vehicle): significantly increase muscle regeneration
relative changes in the % fibrotic area (Masson trichrome staining) ([6]; TA muscle, daily injection): partially reverse the aged muscle fibrosis; also recorded: significant reversal of aging-induced fibrosis
relative changes in the percentage fraction of fibrotic precursors (PGDFRA-positive and Ki67-positive) ([6]; TA muscle, daily injection): partially suppress the aged muscle fibrotic precursors
relative changes in the % fibrotic area (Masson trichrome staining) ([6]; heart tissue, daily injection): partially reverse the aged cardiac fibrosis
relative changes in the percentage fraction of fibrotic precursors (PGDFRA-positive and Ki67-positive) ([6]; heart tissue, daily injection): partially suppress the aged cardiac fibrotic precursors
relative changes in the % fibrotic area (Masson trichrome staining) ([6]; liver tissue, daily injection): partially reverse the aged liver fibrosis
relative changes in the percentage fraction of fibrotic precursors (PGDFRA-positive and Ki67-positive) ([6]; liver tissue, daily injection): partially suppress the aged liver fibrotic precursors
PDGFRA+ Ki67+ fibrotic precursor numbers in multiple non-skeletal muscle tissues ([6]; liver, skin and heart, 2-year-old mice): suppress
aging-induced fibrosis (fibrotic area) in multiple non-skeletal muscle tissues ([6]; liver, skin and heart, daily injection, 2-year-old mice): significant reversal of aging-induced fibrosis
relative changes in the % fibrotic area (Masson trichrome staining) ([6]; skin tissue, daily injection): partially reverse the aged skin fibrosis
relative changes in the percentage fraction of fibrotic precursors (PGDFRA-positive and Ki67-positive) ([6]; skin tissue, daily injection): partially suppress the aged skin fibrotic precursors
MHC protein isoforms and α-actinin protein levels (Western blot) ([7]; injection at 24 h and 48 h, relative to control and 0 h): stronger expression
skeletal muscle regeneration (remaining necrotic area) ([7]; injection at 24 h and 48 h after injury, 4 days post-injury): improved skeletal muscle regeneration
MyoD and MyoG protein expression (Western blot) ([7]; intramuscular injection at 24 h post-cryoinjury, TA 4 days post-injury): elicited the strongest expression

Cc1cccc(Nc2cc(Cl)nc(SCC(=O)O)n2)c1C [WY-14643, pirinixic acid]
EC50 (PPARA): 0.63 µM
EC50 (PPARG): 32 µM
percentage fraction of myoblasts (MyoD-positive cells) [8]: significantly increased
percentage fraction of proliferative myoblasts (MyoD-positive Ki67-positive cells) [8]: significantly increased
